Measurements reported in patent US20250319067A1, “Improved Pharmacokinetics of Tryptamine Prodrugs” (Reunion Neuroscience, Inc., priority 2023, published 2025).

System: healthy females
Test: Phase 1 FIH single ascending dose study: safety and tolerability (AEs)
Format: in vivo, human
Method: The study was a double-blind, randomized, placebo-controlled Phase 1 single ascending dose study in up to 6 cohorts in healthy females. Eligibility was assessed during a screening period of up to 28 days prior to enrollment. For the treatment period, subjects were admitted to the clinical research unit (CRU) one day prior to the dosing (Day −1). On Day 1, all subjects will received the assigned SC dose of RE104 HCl or placebo in a fed state (after domiciling overnight and consuming a planned evening meal on Day −1 and morning meal on Day 1 while at the CRU). Subjects were allowed to select snacks from a planned menu from 4 hours following dosing. Subjects were discharged from the clinic on Day 2 (−24 hours post-dose) after all required study procedures were completed and if deemed medically fit. Subjects returned to the clinic on Day 10 (±2 days) for a follow up visit.
Six (6) cohorts were enrolled in the study. Six (6) single doses were tested in 6 cohorts (Cohort 1 to Cohort 6) of 8 healthy female subjects (6 active and 2 placebo), as indicated in FIG. 1 and Table 3.
The starting dose was 5.5 mg RE104 HCl. Sentinels were used in all cohorts. Within each cohort, 2 subjects were treated first: 1 subject received RE104 HCl and 1 subject received placebo.
The study was monitored by a safety review committee (SRC). […] Safety, tolerability, and available PK data were assessed by the SRC between each cohort before ascending to the next dose level (Table 3). After each cohort dosing was complete, the SRC met to discuss dose escalation. Escalation to the next higher dose level occurred only after evaluation of the safety and tolerability data up to and including at least 24 hours post-dose of all evaluable subjects in the previous dose cohort. Available PK results were requested for determination of dose escalation, as deemed necessary.
Dosing took place at a time point agreed to with the investigational pharmacy and acceptable to the investigator. RE104 HCl or placebo were administered as a SC injection in the upper arm. Subjects received RE104 HCl or placebo in a fed state. The time of administration of RE104 HCl or placebo was be recorded in the eCRF. The regimen used is outlined in Table 3.
Within each cohort, 2 sentinel subjects were treated first: 1 subject received RE104 HCl and 1 subject received placebo. […] All drug administration was be done under direct medical supervision. Study subjects were overseen during the potentially psychoactive study drug period by professionals trained to monitor psychedelic experiences.

CC(C)N(CCc1c[nH]c2cccc(OC(=O)CCCC(=O)O)c12)C(C)C [RE104]
AE Abdominal pain (RE104 5.5 mg, n = 6): 0 n (%) | AE Agitation (RE104 5.5 mg, n = 6): 0 n (%) | AE Diarrhea (RE104 5.5 mg, n = 6): 0 n (%) | AE Distress (RE104 5.5 mg, n = 6): 0 n (%) | AE Fatigue (RE104 5.5 mg, n = 6): 0 n (%) | AE Feeling hot (RE104 5.5 mg, n = 6): 0 n (%) | AE Headache (RE104 5.5 mg, n = 6): 0 n (%) | AE Heart rate increased (RE104 5.5 mg, n = 6): 0 n (%) | AE Hyperhidrosis (RE104 5.5 mg, n = 6): 0 n (%) | AE Muscle twitching (RE104 5.5 mg, n = 6): 0 n (%) | AE Musculoskeletal injury (RE104 5.5 mg, n = 6): 0 n (%) | AE Nausea (RE104 5.5 mg, n = 6): 1 (16.7) n (%) | AE Restlessness (RE104 5.5 mg, n = 6): 0 n (%) | AE Sinus tachycardia (RE104 5.5 mg, n = 6): 0 n (%) | AE Thirst (RE104 5.5 mg, n = 6): 0 n (%) | AE Tremor (RE104 5.5 mg, n = 6): 0 n (%) | AE Vomiting (RE104 5.5 mg, n = 6): 1 (16.7) n (%) | AEs leading to (RE104 5.5 mg, n = 6): 0 n (%) | Any AE (RE104 5.5 mg, n = 6): 2 (33.3) n (%) | Any SAE (RE104 5.5 mg, n = 6): 0 n (%) | Severe AEs (RE104 5.5 mg, n = 6): 0 n (%) | AE Abdominal pain (RE104 11 mg, n = 6): 0 n (%) | AE Agitation (RE104 11 mg, n = 6): 0 n (%) | AE Diarrhea (RE104 11 mg, n = 6): 0 n (%) | AE Distress (RE104 11 mg, n = 6): 0 n (%) | AE Fatigue (RE104 11 mg, n = 6): 0 n (%) | AE Feeling hot (RE104 11 mg, n = 6): 0 n (%) | AE Headache (RE104 11 mg, n = 6): 1 (16.7) n (%) | AE Heart rate increased (RE104 11 mg, n = 6): 0 n (%) | AE Hyperhidrosis (RE104 11 mg, n = 6): 0 n (%) | AE Muscle twitching (RE104 11 mg, n = 6): 0 n (%) | AE Musculoskeletal injury (RE104 11 mg, n = 6): 0 n (%) | AE Nausea (RE104 11 mg, n = 6): 2 (33.3) n (%) | AE Restlessness (RE104 11 mg, n = 6): 0 n (%) | AE Sinus tachycardia (RE104 11 mg, n = 6): 0 n (%) | AE Thirst (RE104 11 mg, n = 6): 0 n (%) | AE Tremor (RE104 11 mg, n = 6): 0 n (%) | AE Vomiting (RE104 11 mg, n = 6): 0 n (%) | AEs leading to (RE104 11 mg, n = 6): 0 n (%) | Any AE (RE104 11 mg, n = 6): 2 (33.3) n (%) | Any SAE (RE104 11 mg, n = 6): 0 n (%) | Severe AEs (RE104 11 mg, n = 6): 0 n (%) | AE Abdominal pain (RE104 22 mg, n = 6): 0 n (%) | AE Agitation (RE104 22 mg, n = 6): 0 n (%) | AE Diarrhea (RE104 22 mg, n = 6): 1 (16.7) n (%) | AE Distress (RE104 22 mg, n = 6): 0 n (%) | AE Fatigue (RE104 22 mg, n = 6): 0 n (%) | AE Feeling hot (RE104 22 mg, n = 6): 1 (16.7) n (%) | AE Headache (RE104 22 mg, n = 6): 0 n (%) | AE Heart rate increased (RE104 22 mg, n = 6): 1 (16.7) n (%) | AE Hyperhidrosis (RE104 22 mg, n = 6): 1 (16.7) n (%) | AE Muscle twitching (RE104 22 mg, n = 6): 0 n (%) | AE Musculoskeletal injury (RE104 22 mg, n = 6): 0 n (%) | AE Nausea (RE104 22 mg, n = 6): 0 n (%) | AE Restlessness (RE104 22 mg, n = 6): 0 n (%) | AE Sinus tachycardia (RE104 22 mg, n = 6): 0 n (%) | AE Thirst (RE104 22 mg, n = 6): 0 n (%) | AE Tremor (RE104 22 mg, n = 6): 0 n (%) | AE Vomiting (RE104 22 mg, n = 6): 0 n (%) | AEs leading to (RE104 22 mg, n = 6): 0 n (%) | Any AE (RE104 22 mg, n = 6): 2 (33.3) n (%) | Any SAE (RE104 22 mg, n = 6): 0 n (%) | Severe AEs (RE104 22 mg, n = 6): 0 n (%) | AE Abdominal pain (RE104 33 mg, n = 9): 2 (22.2) n (%) | AE Agitation (RE104 33 mg, n = 9): 0 n (%) | AE Diarrhea (RE104 33 mg, n = 9): 0 n (%) | AE Distress (RE104 33 mg, n = 9): 0 n (%) | AE Fatigue (RE104 33 mg, n = 9): 2 (22.2) n (%) | AE Feeling hot (RE104 33 mg, n = 9): 0 n (%) | AE Headache (RE104 33 mg, n = 9): 1 (11.1) n (%) | AE Heart rate increased (RE104 33 mg, n = 9): 0 n (%) | AE Hyperhidrosis (RE104 33 mg, n = 9): 0 n (%) | AE Muscle twitching (RE104 33 mg, n = 9): 3 (33.3) n (%) | AE Musculoskeletal injury (RE104 33 mg, n = 9): 1 (11.1) n (%) | AE Nausea (RE104 33 mg, n = 9): 3 (33.3) n (%) | AE Restlessness (RE104 33 mg, n = 9): 3 (33.3) n (%) | AE Sinus tachycardia (RE104 33 mg, n = 9): 4 (44.4) n (%) | AE Thirst (RE104 33 mg, n = 9): 0 n (%) | AE Tremor (RE104 33 mg, n = 9): 1 (11.1) n (%) | AE Vomiting (RE104 33 mg, n = 9): 0 n (%) | AEs leading to (RE104 33 mg, n = 9): 0 n (%) | Any AE (RE104 33 mg, n = 9): 8 (88.9) n (%) | Any SAE (RE104 33 mg, n = 9): 0 n (%) | Severe AEs (RE104 33 mg, n = 9): 0 n (%) | AE Abdominal pain (RE104 38 mg, n = 6): 0 n (%) | AE Agitation (RE104 38 mg, n = 6): 2 (33.3) n (%) | AE Diarrhea (RE104 38 mg, n = 6): 2 (33.3) n (%) | AE Distress (RE104 38 mg, n = 6): 1 (16.7) n (%) | AE Fatigue (RE104 38 mg, n = 6): 0 n (%) | AE Feeling hot (RE104 38 mg, n = 6): 0 n (%) | AE Headache (RE104 38 mg, n = 6): 4 (66.7) n (%) | AE Heart rate increased (RE104 38 mg, n = 6): 0 n (%) | AE Hyperhidrosis (RE104 38 mg, n = 6): 1 (16.7) n (%) | AE Muscle twitching (RE104 38 mg, n = 6): 0 n (%) | AE Musculoskeletal injury (RE104 38 mg, n = 6): 0 n (%) | AE Nausea (RE104 38 mg, n = 6): 2 (33.3) n (%) | AE Restlessness (RE104 38 mg, n = 6): 3 (50.0) n (%) | AE Sinus tachycardia (RE104 38 mg, n = 6): 3 (50.0) n (%) | AE Thirst (RE104 38 mg, n = 6): 2 (33.3) n (%) | AE Tremor (RE104 38 mg, n = 6): 0 n (%) | AE Vomiting (RE104 38 mg, n = 6): 0 n (%) | AEs leading to (RE104 38 mg, n = 6): 0 n (%) | Any AE (RE104 38 mg, n = 6): 5 (83.3) n (%) | Any SAE (RE104 38 mg, n = 6): 0 n (%) | Severe AEs (RE104 38 mg, n = 6): 1 (16.7) n (%) | AE Abdominal pain (RE104 44 mg, n = 3): 0 n (%) | AE Agitation (RE104 44 mg, n = 3): 2 n (%) | AE Diarrhea (RE104 44 mg, n = 3): 0 n (%) | AE Distress (RE104 44 mg, n = 3): 1 n (%) | AE Fatigue (RE104 44 mg, n = 3): 0 n (%) | AE Feeling hot (RE104 44 mg, n = 3): 0 n (%) | AE Headache (RE104 44 mg, n = 3): 0 n (%) | AE Heart rate increased (RE104 44 mg, n = 3): 0 n (%) | AE Hyperhidrosis (RE104 44 mg, n = 3): 1 n (%) | AE Muscle twitching (RE104 44 mg, n = 3): 0 n (%) | AE Musculoskeletal injury (RE104 44 mg, n = 3): 0 n (%) | AE Nausea (RE104 44 mg, n = 3): 2 n (%) | AE Restlessness (RE104 44 mg, n = 3): 1 n (%) | AE Sinus tachycardia (RE104 44 mg, n = 3): 2 n (%) | AE Thirst (RE104 44 mg, n = 3): 0 n (%) | AE Tremor (RE104 44 mg, n = 3): 1 n (%) | AE Vomiting (RE104 44 mg, n = 3): 1 n (%) | AEs leading to (RE104 44 mg, n = 3): 0 n (%) | Any AE (RE104 44 mg, n = 3): 3 n (%) | Any SAE (RE104 44 mg, n = 3): 0 n (%) | Severe AEs (RE104 44 mg, n = 3): 1 n (%) | sinus tachycardia, maximum recorded value (asymptomatic): 115 beats per minute
